PubChem BioAssay (NCI)
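Values below derive from 48-hour exposures of cells grown in 96-well plates, with endpoints linearly interpolated between the two concentrations bracketing the appropriate inhibition level. GI50 = concentration required for 50% inhibition of growth. At the TGI there is no net growth.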

Columns and labels:
Experiment in all cases: NCI-60 cell line screen, 48 h
SW-620 colon = tested on: SW-620 colon
MOLT-4 leukemia = tested on: MOLT-4 leukemia
SNB-78 CNS = tested on: SNB-78 CNS
OVCAR-4 ovarian = tested on: OVCAR-4 ovarian
LXFL 529 NSCLC = tested on: LXFL 529 NSCLC
KM12 colon = tested on: KM12 colon
MDA-MB-435 = tested on: MDA-MB-435
A498 renal = tested on: A498 renal
DMS 273 small cell lung = tested on: DMS 273 small cell lung
HS 578T breast = tested on: HS 578T breast

In the case of `COC(=O)CCC(=O)Nc1cc(Cl)ccc1Cl`, the TGI (SW-620 colon) is reported as > 100 µM, the TGI (MOLT-4 leukemia) is reported as > 100 µM and the TGI (SNB-78 CNS) is reported as > 100 µM. For the same compound, the TGI (OVCAR-4 ovarian) was > 100 µM, the TGI (LXFL 529 NSCLC) was > 100 µM and the TGI (KM12 colon) was > 100 µM.

In the case of `CN(C)CCSc1cccc(-c2cc(-c3cccc(SCCN(C)C)c3)nc(SCCN(C)C)n2)c1`, the TGI (SW-620 colon) is reported as 3.95 µM, the TGI (MOLT-4 leukemia) is reported as 4.66 µM and the TGI (SNB-78 CNS) is reported as 6.25 µM. The TGI (OVCAR-4 ovarian) was 3.04 µM, the TGI (LXFL 529 NSCLC) was 3.89 µM and the TGI (KM12 colon) was 3.44 µM.

In the case of `COc1ccc(NC(=O)CC/C(CC(=O)C(C)(C)C)=N\NC(=O)C(N)=O)cc1`, the TGI (SW-620 colon) is reported as > 100 µM, the TGI (MOLT-4 leukemia) is reported as > 100 µM and the TGI (OVCAR-4 ovarian) is reported as > 100 µM. The TGI (LXFL 529 NSCLC) was > 100 µM and the TGI (KM12 colon) was > 100 µM.

For `COc1cc2c(cc1OC)C(OC)N(C)c1c-2ccc2cc3c(cc12)OCO3` (configuration not stated), the TGI (SW-620 colon) was 8.35 µM, the TGI (MOLT-4 leukemia) was 16.1 µM and the TGI (SNB-78 CNS) was > 75 µM. For the same compound, the TGI (MDA-MB-435) was > 75 µM, the TGI (A498 renal) was 1.83 µM and the TGI (OVCAR-4 ovarian) was 26 µM. It also gave a TGI (DMS 273 small cell lung) of 14.4 µM and a TGI (KM12 colon) of 4.45 µM.

With `COc1ccc(C(=O)C(c2ccc(OC)cc2)C2OC(=O)C(Cl)=C2Cl)cc1` (configuration not stated) the TGI (SW-620 colon) was > 100 µM, the TGI (MOLT-4 leukemia) was > 100 µM and the TGI (SNB-78 CNS) was > 100 µM. For the same compound, the TGI (OVCAR-4 ovarian) was > 100 µM, the TGI (LXFL 529 NSCLC) was > 100 µM and the TGI (KM12 colon) was > 100 µM.

In the case of `CC(C)C1CC2C(=O)N(c3ccccc3)C(=O)C2c2[nH]c3ccccc3c21` (configuration not stated), the TGI (SW-620 colon) is reported as > 100 µM, the TGI (MOLT-4 leukemia) is reported as > 100 µM and the TGI (SNB-78 CNS) is reported as 77.3 µM. The TGI (A498 renal) was > 100 µM, the TGI (OVCAR-4 ovarian) was 5.63 µM and the TGI (DMS 273 small cell lung) was 29.2 µM. The TGI (KM12 colon) was > 100 µM.

With `Cc1ccccc1C(=O)Oc1ccc(O)cc1` the TGI (SW-620 colon) was > 100 µM, the TGI (MOLT-4 leukemia) was > 100 µM and the TGI (SNB-78 CNS) was > 100 µM. The TGI (A498 renal) was > 100 µM, the TGI (OVCAR-4 ovarian) was > 100 µM and the TGI (DMS 273 small cell lung) was > 100 µM. The TGI (KM12 colon) was > 100 µM.

For `Nc1ccccc1NC(=O)c1ccc(CCCC(=O)Nc2ccc(C3CC3N)cc2)cc1` (configuration not stated), the GI50 (SW-620 colon) was 1.08 µM, the TGI (SW-620 colon) was 29.5 µM and the GI50 (MOLT-4 leukemia) was 1.87 µM. The TGI (MOLT-4 leukemia) was > 100 µM, the GI50 (MDA-MB-435) was 1.57 µM and the TGI (MDA-MB-435) was 9.05 µM. It also gave a GI50 (A498 renal) of 0.747 µM, a TGI (A498 renal) of 2.74 µM and a GI50 (OVCAR-4 ovarian) of 2.21 µM. The TGI (OVCAR-4 ovarian) was 26.4 µM, the GI50 (HS 578T breast) was 2.82 µM and the TGI (HS 578T breast) was > 100 µM. For the same compound, the GI50 (KM12 colon) was 3.63 µM and the TGI (KM12 colon) was > 100 µM.

For `Cc1cc(Nc2c3ccccc3nc3ccccc23)ccc1NS(C)(=O)=O`, the GI50 (SW-620 colon) was 3.36 µM, the TGI (SW-620 colon) was 15.9 µM and the GI50 (MOLT-4 leukemia) was 3.28 µM. For the same compound, the TGI (MOLT-4 leukemia) was 9.61 µM, the GI50 (MDA-MB-435) was 4.26 µM and the TGI (MDA-MB-435) was 25.4 µM. For the same compound, the GI50 (A498 renal) was 2.24 µM, the TGI (A498 renal) was 10.6 µM and the GI50 (OVCAR-4 ovarian) was 5.03 µM. For the same compound, the TGI (OVCAR-4 ovarian) was 46.5 µM, the GI50 (HS 578T breast) was 2.45 µM and the TGI (HS 578T breast) was 11.7 µM. For the same compound, the GI50 (KM12 colon) was 4.2 µM and the TGI (KM12 colon) was 16.2 µM.

`CC(=O)OC1CC2Oc3ccc(C)cc3C(C)(O2)C1=O` (configuration not stated) was tested, and the TGI (SW-620 colon) was > 100 µM, the TGI (MOLT-4 leukemia) was > 100 µM and the TGI (DMS 273 small cell lung) was > 100 µM. For the same compound, the TGI (KM12 colon) was > 100 µM.

`Clc1ccc(C2=Nn3c(nnc3-c3cc(Cl)cc(Cl)c3Cl)SC2)cc1` was tested, and the GI50 (SW-620 colon) was 17.4 µM, the TGI (SW-620 colon) was > 100 µM and the GI50 (MOLT-4 leukemia) was 38.8 µM. For the same compound, the TGI (MOLT-4 leukemia) was > 100 µM, the GI50 (MDA-MB-435) was 2.79 µM and the TGI (MDA-MB-435) was 11.4 µM. The GI50 (A498 renal) was 31.1 µM, the TGI (A498 renal) was > 100 µM and the GI50 (OVCAR-4 ovarian) was > 100 µM. For the same compound, the TGI (OVCAR-4 ovarian) was > 100 µM, the GI50 (HS 578T breast) was 16.5 µM and the TGI (HS 578T breast) was 71.3 µM. The GI50 (KM12 colon) was 9.15 µM and the TGI (KM12 colon) was > 100 µM.

With `OC(COc1ccc(F)cc1)Cn1cnc2c(Cl)ncnc21` (configuration not stated) the GI50 (SW-620 colon) was 72.9 µM, the TGI (SW-620 colon) was > 100 µM and the GI50 (MOLT-4 leukemia) was 32.5 µM. For the same compound, the TGI (MOLT-4 leukemia) was > 100 µM, the GI50 (MDA-MB-435) was 41.6 µM and the TGI (MDA-MB-435) was > 100 µM. For the same compound, the GI50 (A498 renal) was > 100 µM, the TGI (A498 renal) was > 100 µM and the GI50 (OVCAR-4 ovarian) was > 100 µM. For the same compound, the TGI (OVCAR-4 ovarian) was > 100 µM, the GI50 (HS 578T breast) was 37.9 µM and the TGI (HS 578T breast) was > 100 µM. The GI50 (KM12 colon) was > 100 µM and the TGI (KM12 colon) was > 100 µM.

In the case of `C[C@@H](CN1CC(=O)NC(=O)C1)N1CC(=O)NC(=O)C1`, the TGI (SW-620 colon) is reported as 1030 µM, the TGI (MOLT-4 leukemia) is reported as 821 µM and the TGI (SNB-78 CNS) is reported as 1480 µM. For the same compound, the TGI (MDA-MB-435) was 1470 µM, the TGI (A498 renal) was 698 µM and the TGI (OVCAR-4 ovarian) was 1110 µM. It also gave a TGI (HS 578T breast) of 1810 µM, a TGI (DMS 273 small cell lung) of 626 µM and a TGI (KM12 colon) of 2170 µM.

With `Cc1cc(O)c(C2=NN(c3ccc(S(N)(=O)=O)cc3)C(c3ccc(N(C)C)cc3)C2)c(C)c1Cl` (configuration not stated) the GI50 (SW-620 colon) was 18.4 µM, the TGI (SW-620 colon) was 37.8 µM and the GI50 (MOLT-4 leukemia) was 12.7 µM. It also gave a TGI (MOLT-4 leukemia) of 43.2 µM, a GI50 (MDA-MB-435) of 13.4 µM and a TGI (MDA-MB-435) of 31 µM. For the same compound, the GI50 (A498 renal) was 26.7 µM, the TGI (A498 renal) was 43.9 µM and the GI50 (OVCAR-4 ovarian) was 13.3 µM. For the same compound, the TGI (OVCAR-4 ovarian) was 27.6 µM, the GI50 (HS 578T breast) was 23 µM and the TGI (HS 578T breast) was 62.3 µM. It also gave a GI50 (KM12 colon) of 13.3 µM and a TGI (KM12 colon) of 28.3 µM.

For `CC(C)CC(=O)Nc1n[nH]c2c1CN(C(=O)C1CCN(C)CC1)C2(C)C`, the GI50 (SW-620 colon) was 0.895 µM, the TGI (SW-620 colon) was > 10 µM and the GI50 (MOLT-4 leukemia) was 0.917 µM. The TGI (MOLT-4 leukemia) was > 10 µM, the GI50 (MDA-MB-435) was 1.41 µM and the TGI (MDA-MB-435) was > 10 µM. For the same compound, the GI50 (A498 renal) was 2.34 µM, the TGI (A498 renal) was > 10 µM and the GI50 (OVCAR-4 ovarian) was 2.54 µM. The TGI (OVCAR-4 ovarian) was > 10 µM, the GI50 (HS 578T breast) was 0.712 µM and the TGI (HS 578T breast) was > 10 µM. The GI50 (KM12 colon) was 0.72 µM and the TGI (KM12 colon) was > 10 µM.

`O=C(Nc1ccccc1O)c1ccc(CNc2ccnc(C(F)(F)F)c2)cc1` gave a GI50 (SW-620 colon) of 5.75 µM, a TGI (SW-620 colon) of 23 µM and a GI50 (MOLT-4 leukemia) of 2.38 µM. It also gave a TGI (MOLT-4 leukemia) of 28.5 µM, a GI50 (MDA-MB-435) of 3.47 µM and a TGI (MDA-MB-435) of 20.9 µM. The GI50 (A498 renal) was 2.84 µM, the TGI (A498 renal) was 12.2 µM and the GI50 (OVCAR-4 ovarian) was 17.2 µM. For the same compound, the TGI (OVCAR-4 ovarian) was > 100 µM, the GI50 (HS 578T breast) was 2.59 µM and the TGI (HS 578T breast) was 32.9 µM. The GI50 (KM12 colon) was 7.01 µM and the TGI (KM12 colon) was 23.3 µM.

For `O=C(/C=N/O)Nc1cc(Cl)c(Cl)cc1Cl`, the TGI (SW-620 colon) was > 100 µM, the TGI (MOLT-4 leukemia) was 47.9 µM and the TGI (MDA-MB-435) was 67 µM. For the same compound, the TGI (A498 renal) was 55.5 µM, the TGI (OVCAR-4 ovarian) was > 100 µM and the TGI (HS 578T breast) was 85.5 µM. It also gave a TGI (KM12 colon) of 84.3 µM.

`CN1CCN(c2ccc(Nc3nc(N)c(C(=O)c4ccc5c(c4)OCCO5)s3)cc2)CC1` was tested, and the GI50 (SW-620 colon) was 3.63 µM, the TGI (SW-620 colon) was > 17.7 µM and the GI50 (MOLT-4 leukemia) was 1.89 µM. It also gave a TGI (MOLT-4 leukemia) of 10 µM, a GI50 (MDA-MB-435) of 3.44 µM and a TGI (MDA-MB-435) of 12.2 µM. It also gave a GI50 (A498 renal) of 2.3 µM, a TGI (A498 renal) of 6.22 µM and a GI50 (OVCAR-4 ovarian) of 4.02 µM. The TGI (OVCAR-4 ovarian) was 10.5 µM, the GI50 (HS 578T breast) was 2.32 µM and the TGI (HS 578T breast) was 12.2 µM. The GI50 (KM12 colon) was 4.06 µM and the TGI (KM12 colon) was 16.1 µM.
